Patent US12016864B2, “LOX enzyme inhibiting methods and compositions” (ANOVIA BIOSCIENCES, INC., priority 2021, dated 2024)

How the values were obtained:
[1] = molecular target: T1, Recombinant human LOXL2 (lysyl oxidase like 2) (Homo sapiens, UniProt Q9Y4K0); experiment: LOXL2 inhibition assay, fluorometric (cadaverine / HRP / Amplex Red); type: biochemical; details: recombinant human LOXL2 130 nM; 30 min preincubation at 37° C.; 2.5 mM cadaverine; read-out: Activity Range LOXL2
T1 construct: purchased R&D systems
T1 sequence (Q9Y4K0 26-774): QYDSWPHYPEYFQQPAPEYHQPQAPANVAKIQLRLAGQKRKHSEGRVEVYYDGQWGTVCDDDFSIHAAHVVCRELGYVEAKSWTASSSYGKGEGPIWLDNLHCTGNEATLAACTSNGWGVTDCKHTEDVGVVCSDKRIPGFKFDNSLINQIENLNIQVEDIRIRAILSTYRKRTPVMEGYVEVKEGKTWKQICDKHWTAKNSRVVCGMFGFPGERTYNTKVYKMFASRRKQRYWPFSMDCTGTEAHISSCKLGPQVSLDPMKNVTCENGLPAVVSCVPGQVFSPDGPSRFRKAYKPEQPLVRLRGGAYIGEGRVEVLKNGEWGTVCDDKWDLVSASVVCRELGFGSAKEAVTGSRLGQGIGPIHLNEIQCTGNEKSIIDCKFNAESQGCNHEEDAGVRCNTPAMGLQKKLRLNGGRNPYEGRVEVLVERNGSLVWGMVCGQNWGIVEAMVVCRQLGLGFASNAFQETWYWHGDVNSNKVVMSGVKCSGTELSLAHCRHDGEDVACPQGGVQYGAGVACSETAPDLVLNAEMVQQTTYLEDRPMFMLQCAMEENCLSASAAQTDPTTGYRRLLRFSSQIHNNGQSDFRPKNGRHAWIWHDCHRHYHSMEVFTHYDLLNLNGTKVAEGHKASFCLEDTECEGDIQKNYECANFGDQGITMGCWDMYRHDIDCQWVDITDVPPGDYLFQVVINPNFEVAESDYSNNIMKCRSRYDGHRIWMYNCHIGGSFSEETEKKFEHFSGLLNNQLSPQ
Summary of the method: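 Recombinant human LOXL2 or LOXL3 in 1.2 M urea, 50 mM sodium borate pH 8.0, 10 mM CaCl, preincubated with compound 30 min at 37 °C. Cadaverine substrate added; H2O2 detected by HRP/Amplex Red fluorescence, read kinetically for 60 min at 37 °C. Initial-rate slopes, background-subtracted and normalised to DMSO, fitted to a 4-parameter curve with bottom fixed at 0.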

[2] = molecular target: T2, Recombinant human LOXL3 (lysyl oxidase like 3) (Homo sapiens, UniProt P58215); experiment: LOXL3 inhibition assay, fluorometric (cadaverine / HRP / Amplex Red); type: biochemical; details: recombinant human LOXL3 150 nM; 30 min preincubation at 37° C.; 1 mM cadaverine; read-out: Activity Range LOXL3
T2 construct: purchased R&D systems
T2 sequence (P58215 26-753): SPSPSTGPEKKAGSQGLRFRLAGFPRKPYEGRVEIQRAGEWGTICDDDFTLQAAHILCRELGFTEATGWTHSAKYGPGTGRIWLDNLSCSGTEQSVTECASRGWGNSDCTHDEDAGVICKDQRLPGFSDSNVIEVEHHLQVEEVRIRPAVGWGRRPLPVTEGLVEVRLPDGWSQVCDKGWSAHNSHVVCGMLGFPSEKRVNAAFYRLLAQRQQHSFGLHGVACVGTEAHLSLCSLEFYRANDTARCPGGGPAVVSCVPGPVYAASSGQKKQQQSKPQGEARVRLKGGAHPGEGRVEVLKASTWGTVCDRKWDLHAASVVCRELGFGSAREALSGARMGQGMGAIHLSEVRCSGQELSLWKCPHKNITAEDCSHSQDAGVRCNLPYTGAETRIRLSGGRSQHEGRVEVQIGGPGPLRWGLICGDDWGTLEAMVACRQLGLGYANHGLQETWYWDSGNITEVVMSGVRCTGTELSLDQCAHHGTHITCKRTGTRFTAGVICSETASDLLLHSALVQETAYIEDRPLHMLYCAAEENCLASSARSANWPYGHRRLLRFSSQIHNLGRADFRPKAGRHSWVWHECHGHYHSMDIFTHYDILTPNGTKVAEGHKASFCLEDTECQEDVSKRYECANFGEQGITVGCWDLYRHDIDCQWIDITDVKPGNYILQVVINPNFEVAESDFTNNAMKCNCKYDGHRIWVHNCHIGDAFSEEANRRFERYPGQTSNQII
Method: The ability of compounds to inhibit one or more of the lysyl oxidases LOXL2 and/or LOXL3 was determined using a fluorometric assay. This assay measures the activity of lysyl oxidases by coupling the reaction with horseradish peroxidase-catalyzed […]. The activity assay protocol uses cadaverine as substrate that releases hydrogen peroxide upon transformation by the specific LOX family enzyme present in the sample. Hydrogen peroxide is in turn detected using a red fluorescence substrate for HRP-coupled reactions (Amplex Red Enzyme Assays, Thermo Scientific Fisher). This leads to increase in fluorescence that can be easily detected at Ex/Em=540/590 nm in a fluorescence microplate reader.
Recombinant human LOXL2 (lysyl oxidase like 2) and recombinant human LOXL3 (lysyl oxidase like 3) were purchased from R&D systems and assays were performed in 1.2 M urea, 50 mM sodium borate buffer pH 8.0, and 10 mM CaCl.
5 μl of freshly prepared reaction buffer were delivered to reaction wells. Compounds were resuspended in 100% DMSO at 10 mM and delivered into buffer using acoustic technology (Echo550; nanoliter range). A 3× solution of LOXL2 or LOXL3 in reaction buffer was prepared (“enzyme solution”) and 5 μL of enzyme solution was added into the reaction wells. Buffer only was added to column 1 for no protein control. Reactions were incubated for 30 minutes at 37° C. A 3× mixture of cadaverine, Amplex Red, and HRP (“Substrate/Detection Mix) was prepared and subsequently 5 μL of the mixture added to each reaction well. Progress of reactions was monitored for 60 minutes at 37° C. using Clariostar plate reader (ex 530-12, ems 600-40). For all activity assays, pan-LOX inhibitor CCT365623 (Tang et al, 2017) and LOXL2/LOXL3 inhibitor PAT-1251 (PharmaKea) were included as standards.
For the data analysis, the slope of the linear portion of the progress curve was calculated using Clariostar software. Typical analysis interval was between 8-30 min, but varied between experiments. The background-subtracted signals (No protein wells are considered as background) were converted to % activity relative to DMSO controls. Data was analyzed using GraphPad Prism 4 with “sigmoidal dose-response (variable slope)”; 4 parameters with Hill Slope. Constraints: Bottom=Constant equal to 0. Top=Must be less than 120.

| IC50 [1] [nM] | IC50 [2] [nM] | SMILES |
| --- | --- | --- |
| ≤ 500 | ≤ 500 | NCc1ccnc(OC[C@@H]2C[C@H](C3CCCCC3)CN2S(=O)(=O)N2CCOCC2)c1 (relative stereo) [Example 239, cis-(2-((4-Cyclohexyl-1-(morpholinosulfonyl)pyrrolidin-2-yl)methoxy)pyridin-4-yl)methanamine 2,2,2-trifluoroacetate] |
| ≤ 500 | 500 to 1000 | NCc1ccnc(OC[C@@H]2C[C@H](C3CCCCC3)CN(S(=O)(=O)N3CCS(=O)(=O)CC3)C2)c1 (racemic) [Example 235, cis-4-((3-(((4-(Aminomethyl)pyridin-2-yl)oxy)methyl)-5-cyclohexylpiperidin-1-yl)sulfonyl)thiomorpholine 1,1-dioxide 2,2,2-trifluoroacetate] |
| ≤ 500 | ≤ 500 | NCc1ccnc(OC[C@@H]2C[C@@H](C3CCCCC3)CN2S(=O)(=O)N2CCOCC2)c1 [Example 239T, trans-(2-((4-Cyclohexyl-1-(morpholinosulfonyl)pyrrolidin-2-yl)methoxy)pyridin-4-yl)methanamine 2,2,2-trifluoroacetate] |
